Where a name gives a salt, the structure may show the parent alone.
Key:
skin overlying the tumor = test: Skin reaction of skin overlying the tumor; type: in vivo, C3H/He mice
Description: The skin reaction is scored as follows:
1 = superficial inflammation;
post injection. The skin reaction is scored as follows:
(§1) Otherwise, the procedure was the same. The following Table 5 indicates the results.
(§2) The following Table 6 provides the results.

[1] = Acute animal toxicity / survival; details: for Animal Survival: ADM 15 mg/kg, deaths usually within 2 days
Protocol: The adriamycin in distilled water (4.45 mg/ml) was mixed with 36 mg/ml bovine collagen (BC) 1:1 to yield a composition ratio of 2.25 mg adriamycin:18 mg BC/ml.

white blood cells = test: White blood cell count in treated tumor-bearing mice; type: in vivo, C3H/He mice; details: 5-FU 100 mg/kg, day 4 post-treatment, mean ± S.E. (Table 3)
Description: the tail of treatment mice.
as §1, §2

Row | SMILES | Skin Reaction (skin overlying the tumor; ADM 15 mg/kg, i.t., Day 8, score 0 = no effect, 1 = superficial inflammation, 2 = scab, 3 = ulcer) | toxicity ([1]; 15 mg/kg, intratumoral injection) | Animal Survival ([1]; i.p.) | Animal Survival ([1]; i.t.) | White Blood Cells/mm^3 (white blood cells; i.p.) | White Blood Cells/mm^3 (white blood cells; i.t. (EPI 5 mg/kg where present)) | Skin Reaction (skin overlying the tumor; 5-FU 75 mg/Kg, i.p., 5 min before X-rays (1000 rad), score 0-3 (Table 9)) | Skin Reaction (skin overlying the tumor; 5-FU 75 mg/Kg, i.p., no X-rays, score 0-3 (Table 9)) | Skin Reaction (skin overlying the tumor; 5-FU 100 mg/kg, i.t. (EPI 5 mg/kg where present), Day 8, score 0 = no effect, 1 = superficial inflammation, 2 = scab, 3 = ulcer (Table 3))
1 | COc1cccc2c1C(=O)c1c(O)c3c(c(O)c1C2=O)C[C@@](O)(C(=O)CO)C[C@@H]3O[C@H]1C[C@H](N)[C@H](O)[C@H](C)O1 [Free ADM, doxorubicin-HCl] | 2.0 | non-toxic | 25% | 100% |  |  |  |  | 
2 | O=c1[nH]cc(F)c(=O)[nH]1 [5-FU, 5-fluorouracil] |  |  |  |  | 4.5 ± 0.6 Cells/mm^3 (×10^3) | 3.5 ± 0.5 Cells/mm^3 (×10^3) | 2 | 2 | 0
